# Source: patent US7932262B2 (Novartis AG, priority 2006, dated 2011)
# Where two headings read alike, the source gives them in different places.
# Legend:
# PDK1 kinase = target: T1, PDK1 kinase (Homo sapiens, UniProt O15530); experiment: PDK1 Kinase Alpha Screen Assay; assay type: biochemical
# T1 sequence (O15530 1-556): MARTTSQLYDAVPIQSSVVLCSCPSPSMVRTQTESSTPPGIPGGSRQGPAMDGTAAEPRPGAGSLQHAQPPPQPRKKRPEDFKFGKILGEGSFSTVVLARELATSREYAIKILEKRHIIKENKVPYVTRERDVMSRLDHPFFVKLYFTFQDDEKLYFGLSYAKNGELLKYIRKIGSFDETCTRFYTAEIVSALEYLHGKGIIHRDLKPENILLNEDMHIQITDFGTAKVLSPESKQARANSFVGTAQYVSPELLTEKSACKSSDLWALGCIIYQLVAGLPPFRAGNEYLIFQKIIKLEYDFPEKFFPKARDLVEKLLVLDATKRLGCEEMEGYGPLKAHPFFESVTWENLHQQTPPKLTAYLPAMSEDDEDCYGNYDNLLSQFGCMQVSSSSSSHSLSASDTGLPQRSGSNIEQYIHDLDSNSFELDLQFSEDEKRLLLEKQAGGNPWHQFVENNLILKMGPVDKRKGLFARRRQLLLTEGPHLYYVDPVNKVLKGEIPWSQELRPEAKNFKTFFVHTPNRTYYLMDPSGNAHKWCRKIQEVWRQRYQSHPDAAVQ
# Protocol: 1. PDK1 Kinase Alpha Screen Assay
# Reagents/Concentrations: The PDK1-4 peptide substrate, biotin-[…]-NH2, was purchased from the Tufts University Core Facility. The final concentration of PDK1-4 peptide substrate was 50 nM The ATP substrate (Adenosine-5′-triphosphate) was purchased from Roche Diagnostics. The final concentration of ATP substrate was 10 uM. Phospho-(Ser/Thr) PKA substrate antibody was purchased from Cell Signaling Technology. The final concentration of antibody was 0.3 mg/ml. The Alpha Screen Protein A detection kit containing donor and acceptor beads was purchased from PerkinElmer Life Sciences. The final concentration of both donor and acceptor beads was 25 μg/ml. Alpha Screen was used for detection. The biotinylated-PDK1-4 peptide was phosphorylated by PDK1 kinase using the ATP substrate. The biotinylated-PDK1-4 peptide substrate was bound to the streptavidin coated donor bead. The antibody was bound to the protein A coated acceptor bead. The antibody bound to the phosphorylated form of the biotinylated PDK-1 peptide substrate, bringing the donor and acceptor beads into close proximity. Laser irradiation of the donor bead at 680 nm generated a flow of short-lived singlet oxygen molecules. When the donor and acceptor beads were in close proximity, the reactive oxygen generated by the irradiation of the donor beads initiated a luminescence/fluorescence cascade in the acceptor beads. This process led to a highly amplified signal with output in the 530-620 nm range. Assays were carried out in 50 mM Tris, pH=7.5, 10 mM MgCl2, 0.1% Bovine Serum Albumin, 0.01% Tween-20, 2 mM Dithiolthreitol, 2.5% Dimethyl Sulfoxide. Reactions were stopped by adding 50 mM Tris, pH=7.5, 90 mM EDTA, 0.1% Bovine Serum Albumin, 0.01% Tween-20.
# Procedure: To 10 μl of PDK1-4 peptide, 0.5 μl of test compound in dimethyl sulfoxide is added. PDK1 kinase and ATP are mixed. 10 μl of the PDK1 kinase/ATP mix is added to start the reaction. The reaction is allowed to proceed for 3-18 hours. The reactions are stopped by adding 10 μl of the EDTA-containing stop buffer. Beads are mixed with antibody. 25 μl of the bead/antibody mix is added to the stopped reactions. Plates are incubated at room temperature overnight to allow for detection development before being read. The assay is run is a 384-well format. […]
# PC-3 cells = experiment: Cell Proliferation Assay (Cell Titer Glo), PC-3 cell line; assay type: cell-based; details: read-out: CPEC50 PC3
# Protocol: IV. Cell Proliferation Assay Protocol:
# A2780, PC-3, or PC3MM cells were seeded at 1000 cells/well in 100 μL/well (10.000 cells/mL) growth media in 96-well plates. Cells were allowed to adhere to the bottom of plates for 3-5 hours in a 37° C. 5% CO2 incubator. Compounds were dissolved in DMSO and then transferred to the cell plates. The cells were incubated with the compounds for 3 days in a 37° C. 5% CO2 incubator. The growth medium containing the compounds was then removed from the cells and fresh medium was added, followed by 100 μL of Cell Titer Glo assay reagent (Promega). This mixture was shaken for 1 minute and then incubated without shaking for 10 minutes. Activity determinations for the compounds were made by detection on a Trilux Instrument.
# V. Cell Proliferation Assay Protocol: PC-3 Cell Line
# PC-3 cells were seeded at 1000 cells/well in 100 μL/well (10.000 cells/mL) along with growth media into black-walled, clear bottom 96-well plates. The cells were allowed to adhere to the bottom of the plate for 3-5 hours in a 37° C. 5% CO2 incubator.
# Test compounds were diluted to 500× in DMSO. The DMSO solutions of six of the compounds were transferred to the cells in the 96 well round bottom plate, column 2, row B-F. A 1:3 serial dilution of each compound was carried out. The serial dilution comprised adding 20 μL of DMSO to the wells containing the compounds and doing a 1:3 dilution across the plate from columns 2-10. Column 11 contained only DMSO. The serial dilution was carried out using a BioMek 2000 protocol “CP Serial Dilution using 250 μL tips” or “Proliferation Compound” (if using 20 μL tips).
# To a 96 deep well block, columns 2-11 rows B-F, was transferred 500 μL of growth medium. Using the FX protocol “HH_CellAssay—2 μL to 500 μL”, 2 μL of compound from each cell of the compound plate was transferred to the corresponding cell in the 96 deep well block containing 500 μL of growth medium. The instrument was programmed to dilute the compound in growth medium and then transfer 100 μL of that mixture to cell plates containing cells. The cell plates, to which test compounds had been added, were incubated for 3 days at 37° C. Following the incubation, the medium was removed and replaced with fresh medium. Cell Titer Glo (100 μL) was added to each well and the plate was shaken for 1 minute and then incubated without shaking for 10 minutes. The plates were then read using a Trilux instrument.
# [1] = PDK1 Kinase Alpha Screen Assay, read-out: PDK1 IC50
# [2] = Homo sapiens, PC-3, Cell Proliferation Assay, PC3
Structure (SMILES),IC50 (PDK1 kinase; [1]),EC50 (PC-3 cells; [2]),further results
"Fc1ccc(Nc2ncc3ccc(OC4CCNCC4)cc3n2)cc1Br [Compound 589, N-(3-bromo-4-fluorophenyl)-7-(piperidin-4-yloxy)quinazolin-2-amine]",< 5 µM,< 5 µM,–
"FC(F)(F)c1ccc(OC2CCNCC2)c2nc(Nc3ccc(N4CCOCC4)cc3)ncc12 [Compound 502, N-(4-morpholinophenyl)-8-(piperidin-4-yloxy)-5-(trifluoromethyl)quinazolin-2-amine]",< 5 µM,–,"EC50 (PC-3 cells; Cell Proliferation Assay, PC3): < 5 µM"
"CC(C)N1CCC(Oc2cccc3cnc(Nc4cccc(C(F)(F)F)c4)nc23)CC1 [Compound 529, 8-(1-isopropylpiperidin-4-yloxy)-N-(3-(trifluoromethyl)phenyl)quinazolin-2-amine]",< 5 µM,< 5 µM,–
"O=C(NC1CCCC1)c1ccc(Nc2ncc3cccc(OC4CCNCC4)c3n2)cc1F [Compound 495, N-cyclopentyl-2-fluoro-4-(8-(piperidin-4-yloxy)quinazolin-2-ylamino)benzamide]",< 5 µM,< 5 µM,–
"CC(C)N1CCC(Oc2ccc3cnc(Nc4cccc(N5CCN(C)CC5)c4)nc3c2)CC1 [Compound 582, 7-(1-isopropylpiperidin-4-yloxy)-N-(3-(4-methylpiperazin-1-yl)phenyl)quinazolin-2-amine]",< 5 µM,5 to 10 µM,–
"CC(C)NC(=O)c1ccc(Nc2ncc3cc(-c4nccs4)c(OC4CCN(C(C)C)CC4)cc3n2)cc1 [Compound 638, N-isopropyl-4-(7-(1-isoproylpiperidin-4-yloxy)-6-(thiazol-2-yl)quinazolin-2-ylamino)benzamide]",< 5 µM,< 5 µM,–
"O=C(c1cc(Nc2ncc3cccc(OC4CCNCC4)c3n2)cc(C(F)(F)F)c1)N1CCOCC1 [Compound 454, morpholino(3-(8-(piperidin-4-yloxy)quinazolin-2-ylamino)-5-(trifluoromethyl)phenyl)methanone]",< 5 µM,5 to 10 µM,–
"Fc1ccc(Nc2ncc3cccc(-c4ccc(NCCN5CCCC5)nc4)c3n2)cc1F [Compound 1018, N-(3,4-difluorophenyl)-8-(6-(2-(pyrrolidin-1-yl)ethylamino)pyridin-3-yl)quinazolin-2-amine]",–,–,"IC50 (PDK1 kinase; read-out: PDK1 IC50): < 5 µM; EC50 (PC-3 cells; Homo sapiens, PC-3, PC3 cells): < 5 µM"
"COc1cc(Nc2ncc3ccc(OC4CCN(C(C)C)CC4)cc3n2)cc(OC)c1 [Compound 565, N-(3,5-dimethoxyphenyl)-7-(1-isopropylpiperidin-4-yloxy)quinazolin-2-amine]",5 to 10 µM,5 to 10 µM,–
"CN1CCC(Nc2ccc3cnc(Nc4ccc(N5CCOCC5)c(F)c4)nc3c2)CC1 [Compound 368, N2-(3-fluoro-4-morpholinophenyl)-N7-(1-methylpiperidin-4-yl)quinazoline-2,7-diamine]",< 5 µM,< 5 µM,–
"Clc1ccc(OC2CCNCC2)c2nc(Nc3cccc(-c4cc[nH]n4)c3)ncc12 [Compound 617, N-(3-(1H-pyrazol-3-yl)phenyl)-5-chloro-8-(piperidin-4-yloxy)quinazolin-2-amine]",< 5 µM,5 to 10 µM,–
"NS(=O)(=O)c1ccc(Nc2ncc3c(Br)ccc(OC4CCNCC4)c3n2)cc1 [Compound 429, 4-(5-bromo-8-(piperidin-4-yloxy)quinazolin-2-ylamino)benzenesulfonamide]",< 5 µM,5 to 10 µM,–
"CN1CCN(c2ccc(Nc3ncc4c(Br)ccc(OC5CCNCC5)c4n3)cc2)CC1 [Compound 373, 5-bromo-N-(4-(4-methylpiperazin-1-yl)phenyl)-8-(piperidin-4-yloxy)quinazolin-2-amine]",10 to 25 µM,< 5 µM,–
"CN1CCC(Nc2ccc3cnc(Nc4ccc(N5CCOCC5)cc4)nc3c2)CC1 [Compound 369, N7-(1-methylpiperidin-4-yl)-N2-(4-morpholinophenyl)quinazoline-2,7-diamine]",< 5 µM,5 to 10 µM,–
"Clc1ccc(OC2CNC2)c2nc(Nc3ccc(N4CCOCC4)cc3)ncc12 [Compound 609, 8-(azetidin-3-yloxy)-5-chloro-N-(4-morpholinophenyl)quinazolin-2-amine]",< 5 µM,5 to 10 µM,–
"CCN1CCC[C@H]1CNc1ccc(-c2cccc3cnc(Nc4ccc(S(N)(=O)=O)cc4)nc23)cn1 [Compound 973, (S)-4-(8-(6-((1-ethylpyrrolidin-2-yl)methyamino)-pyridin-3-yl)quinazolin-2-ylamino)benzenesulfonamide]",–,–,"IC50 (PDK1 kinase; read-out: PDK1 IC50): < 5 µM; EC50 (PC-3 cells; Homo sapiens, PC-3, PC3 cells): < 5 µM"
"O=S(=O)(c1cccc(Nc2ncc3c(Br)ccc(OC4CCNCC4)c3n2)c1)N1CCOCC1 [Compound 437, 5-bromo-N-(3-(morpholinosulfonyl)phenyl)-8-(piperidin-4-yloxy)quinazolin-2-amine]",5 to 10 µM,< 5 µM,–
"COc1cccc(Nc2ncc3ccc(OC4CCNCC4)cc3n2)c1 [Compound 571, N-(3-methoxyphenyl)-7-(piperidin-4-yloxy)quinazolin-2-amine]",< 5 µM,< 5 µM,–
"COc1c(-c2cnn(C)c2)cc(Cl)c2cnc(Nc3ccc(C(=O)NC(C)C)cc3)nc12 [Compound 1034, 4-(5-chloro-8-methoxy-7-(1-methyl-1H-pyrazol-4-yl)quinazolin-2-ylamino)-N-isopropylbenzamide]",–,–,"IC50 (PDK1 kinase; head of the second part of Table 4: BV11261, read-out: PDK1 BV11261): < 5 µM; EC50 (PC-3 cells; Homo sapiens, PC-3, PC3 cells): < 5 µM"
"CC(C)NC(=O)c1ccc(Nc2ncc3ccc(OC4CCNCC4)cc3n2)cc1 [Compound 590, N-isopropyl-4-(7-(piperidin-4-yloxy)quinazolin-2-ylamino)benzamide]",< 5 µM,< 5 µM,–
"CC(C)NC(=O)c1ccc(Nc2ncc3ccc(OC4CCN(C(C)C)CC4)cc3n2)cc1 [Compound 329, N-isopropyl-4-(7-(1-isopropylpiperidin-4-yloxy)quinazolin-2-ylamino)benzamide]",< 5 µM,< 5 µM,–
